Data from patent US4284633A, “Derivatives of xanthine” (Boehringer Mannheim GmbH, priority 1979, dated 1981).

Tested on: antigen induced bronchospasm
Assay: inhibition of antigen induced bronchospasm in passively sensitized guinea pigs
Type: in vivo, guinea pig
Details: 5 minutes before antigen, evaluated 3 minutes after antigen
Method: Specifically, tests were run as follows:
The antigen is twice recrystallized egg albumin.
The animals were bled and the pooled serum stored at -20° C.
Injections of 0.5 ml antiserum of 1:50 dilution were given i.v. 24-48 h before challenge.
Guinea pigs were anaesthetized with pentobarbital sodium (40 mg/kg i.p.). Cannulae were tied into the trachea and the jugular vein and the lung inflated with a pump at a rate of 72 strokes/min and a constant stroke volume of 6-8 ml.
Bronchospasm, provoked by injecting ovalbumin i.v. was measured as described by Konzett, H. and R. Rossler, "Versuchsanordnung und Untersuchungen an der Bronchialmuskulatur" Naunyn-Schmiedebergs, Arch. exp. Path. Pharmak.
The drugs were applied intravenously 5 minutes before the antigen.
For calculation the following formula was used: [formula] b=Bronchospasm after antigen injection, measured in mm from tracing m=maximum height of tracing in mm with arm of the treachea-cannula clamped
a=pre injection height of the tracing in mm

Row | Structure (SMILES) | % inhibition Br Sp (antigen induced bronchospasm) (0.38 mg/kg i.v.) | % inhibition Br Sp (antigen induced bronchospasm) (0.1 mg/kg i.v.) | other results
1 | Cn1c(=O)c2[nH]cnc2n(C)c1=O [Aminophylline, reference compound] | – | – | % inhibition Br Sp (antigen induced bronchospasm) (24 mg/kg i.v.): 29%
2 | CC(=O)NC1CCN(CCCn2cnc3c2c(=O)n(C)c(=O)n3C)CC1 [Example 2c, 7-[3-(4-acetamidopiperidino)-propyl]-theophylline] | 37% | – | –
3 | Cc1ccccc1C(=O)NC1CCN(CCCn2cnc3c2c(=O)n(C)c(=O)n3C)CC1 [Example 2d, 7-{3-[4-(2-methylbenzamido)-piperidino]-propyl}-theophylline] | – | 60% | –
4 | Cn1c(=O)c2c(ncn2CCCN2CCC(NC(=O)Cc3ccccc3)CC2)n(C)c1=O [Example 2e, 7-[3-(4-phenylacetamidopiperidino)-propyl]-theophylline] | 68% | – | –
5 | Cn1c(=O)c2c(ncn2CCCN2CCC(NC(=O)c3ccccc3O)CC2)n(C)c1=O [Example 4a, 7-{3-[4-(2-hydroxybenzamido)-piperidino]-propyl}-theophylline] | – | 82% | –
6 | Cn1c(=O)c2c(ncn2CCCN2CCC(NC(=O)c3cccs3)CC2)n(C)c1=O [Example 4d, 7-{3-[4-(thiophene-2-carboxamido)-piperidino]-propyl}-theophylline] | – | 38% | –
